The test concerns MKL-1 (VP-MCC) cells. The experiment in a line: Differential growth inhibition/cytotoxicity assay (CellTiterGlo/XTT), MKL-1. As to conditions: Homo sapiens, MKL-1, 72 h, read-out: IC50 (ave ± sd). For orientation: In ATP-based viability assays light output follows the ATP content of the culture.

Here are results for one molecule from article PMC8245553, “Identification of natural product modulators of Merkel cell carcinoma cell growth and survival” (Scientific Reports, 2021).

In general, IC50 refers to the concentration needed to halve the response being measured. `CC1(C)CCC(c2ccc(Cl)cc2)=C(CN2CCN(c3ccc(C(=O)NS(=O)(=O)c4ccc(N[C@H](CCN5CCOCC5)CSc5ccccc5)c(S(=O)(=O)C(F)(F)F)c4)cc3)CC2)C1` [Navitoclax]: the half-maximal inhibitory concentration (IC50) came to 0.2 ± 0.029 µM.
